Experiment: Cytotoxic activity against human HuH7 cells containing HCV subgenomic replicons Ava5-EG(D4AB)SEAP by MTS assay
Assay type: cell-based, Huh-7
Conditions: not given

| Compound | CC50 [nM] |
| --- | --- |
| O=C(NC1CCCCC1)N[C@@H](C(=O)N1CCC[C@H]1C(=O)Nc1nc(-c2ccccc2)cs1)c1ccccc1 | > 50000 |
| O=C(Nc1nc(-c2ccccc2)cs1)[C@@H]1CCCN1C(=O)[C@H](NC(=S)NC1CCCCC1)c1ccccc1 | > 50000 |
| CC[C@@H](NC(=O)N1CCOCC1)C(=O)N1CCC[C@H]1C(=O)Nc1nc(-c2ccccc2)cs1 | > 50000 |
| CCN(CC)C(=O)N[C@@H](C(=O)N1CCC[C@H]1C(=O)Nc1nc(-c2ccccc2)cs1)c1ccccc1 | > 50000 |
| O=C(N[C@@H](C(=O)N1CCC[C@H]1c1ncc(-c2ccccc2)s1)c1ccccc1)N1CCOCC1 | > 50000 |
| O=C(Nc1ccccn1)N[C@@H](C(=O)N1CCC[C@H]1C(=O)Nc1nc(-c2ccccc2)cs1)c1ccccc1 | > 50000 |
| CC(C)[C@@H](NC(=O)N1CCOCC1)C(=O)N1CCC[C@H]1C(=O)Nc1nc(-c2ccccc2)cs1 | > 50000 |
| CC(C)(C)c1csc(NC(=O)[C@@H]2CCCN2C(=O)[C@H](NC(=O)N2CCOCC2)c2ccccc2)n1 | > 50000 |
| O=C(Nc1ccccc1)N[C@@H](C(=O)N1CCC[C@H]1C(=O)Nc1nc(-c2ccccc2)cs1)c1ccccc1 | > 50000 |
| O=C(Nc1nc(-c2ccccc2)cs1)[C@@H]1CCCN1C(=O)[C@H](NC(=S)NC1CC1)c1ccccc1 | > 50000 |
| CC(C)C(=O)N[C@@H](C(=O)N1CCC[C@H]1C(=O)Nc1nc(-c2ccccc2)cs1)c1ccccc1 | > 50000 |

Experiment: Inhibition of NS5A in HCV genotype 1b Ava5 infected in human HuH7 cells containing Ava5-EG(D4AB)SEAP subgenomic replicons assessed as reduction in viral replicon growth incubated for 1 day by Phospha-light assay method
Assay type: cell-based, Hepatitis C virus subtype 1b
Conditions: Hepatitis C virus, Ava5, 24 h

| Compound | EC50 [nM] |
| --- | --- |
| O=C(NC1CCCCC1)N[C@@H](C(=O)N1CCC[C@H]1C(=O)Nc1nc(-c2ccccc2)cs1)c1ccccc1 | 3.3 |
| O=C(Nc1nc(-c2ccccc2)cs1)[C@@H]1CCCN1C(=O)[C@H](NC(=S)NC1CCCCC1)c1ccccc1 | 3.2 |
| CC[C@@H](NC(=O)N1CCOCC1)C(=O)N1CCC[C@H]1C(=O)Nc1nc(-c2ccccc2)cs1 | 1630 |
| CCN(CC)C(=O)N[C@@H](C(=O)N1CCC[C@H]1C(=O)Nc1nc(-c2ccccc2)cs1)c1ccccc1 | 18 |
| O=C(N[C@@H](C(=O)N1CCC[C@H]1c1ncc(-c2ccccc2)s1)c1ccccc1)N1CCOCC1 | 2970 |
| O=C(Nc1ccccn1)N[C@@H](C(=O)N1CCC[C@H]1C(=O)Nc1nc(-c2ccccc2)cs1)c1ccccc1 | 30 |
| CC(C)[C@@H](NC(=O)N1CCOCC1)C(=O)N1CCC[C@H]1C(=O)Nc1nc(-c2ccccc2)cs1 | 990 |
| CC(C)(C)c1csc(NC(=O)[C@@H]2CCCN2C(=O)[C@H](NC(=O)N2CCOCC2)c2ccccc2)n1 | 21 |
| O=C(Nc1ccccc1)N[C@@H](C(=O)N1CCC[C@H]1C(=O)Nc1nc(-c2ccccc2)cs1)c1ccccc1 | 2.3 |
| O=C(Nc1nc(-c2ccccc2)cs1)[C@@H]1CCCN1C(=O)[C@H](NC(=S)NC1CC1)c1ccccc1 | 34 |
| CC(C)C(=O)N[C@@H](C(=O)N1CCC[C@H]1C(=O)Nc1nc(-c2ccccc2)cs1)c1ccccc1 | 36 |

From ChEMBL document CHEMBL4052583, “A Potent, Selective, and Orally Bioavailable HCV NS5A Inhibitor for Treatment of Hepatitis C Virus: (S)-1-((R)-2-(Cyclopropanecarboxamido)-2-phenylacetyl)-N-(4-phenylthiazol-2-yl)pyrrolidine-2-carboxamide” (J Med Chem, 2017)
